Values after ≈ are worked out from the molar mass of the structure shown. Read-outs that look alike come from different tables or passages of the source.
Columns and labels:
[1] = system: Pdist-1; experiment: Antibiotic susceptibility test, broth dilution MIC; format: cell-based, Parabacteroides distasonis; details: for MIC: Parabacteroides distasonis, read-out: MIC against Pdist-1
Experimental: (§1) According to the requirements for antibiotic susceptibility tests of anaerobic bacteria in “Technical specification on antimicrobial susceptibility tests” (Standard No. WS/T 639-2018) of the People's Republic of China Health Industry Standard, the susceptibility of the strains to antibiotics was determined by a broth dilution method, and the MIC values were recorded.
(§2) 0.1 mL of the prepared 5 bacterial suspensions were sequentially pipetted into 96-well plates containing equal volumes of prepared antibacterial drugs, such that the final concentration of the inoculated bacteria was 5×10^5 CFU/mL, and the drug concentrations were 256 μg/mL, 128 μg/mL, 64 μg/mL, 32 μg/mL, 16 μg/mL, 8 μg/mL, 4 μg/mL, 2 μg/mL, 1 μg/mL, 0.5 μg/mL, 0.25 μg/mL, and 0.125 μg/mL, respectively. Incubation: The above 96-well plates were anaerobically incubated in an incubator at 37° C. for 46-48 h.

[2] = system: Eaviu-1; experiment: Antibiotic susceptibility test, broth dilution MIC; format: cell-based, Enterococcus avium; details: for MIC: Enterococcus avium, read-out: MIC against Eaviu-1
Experimental: as §1, §2

[3] = system: Lsali-1; experiment: Antibiotic susceptibility test, broth dilution MIC; format: cell-based, Lactobacillus salivarius; details: anaerobic, 37° C., 46-48 h; for MIC: Ligilactobacillus salivarius, read-out: MIC against Lsali-1
Experimental: as §1, §2

[4] = system: Lferm-1; experiment: Antibiotic susceptibility test, broth dilution MIC; format: cell-based, Limosilactobacillus fermentum; details: for MIC: Limosilactobacillus fermentum, read-out: MIC against Lferm-1
Experimental: as §1, §2

[5] = system: Bbifi-1; experiment: Antibiotic susceptibility test, broth dilution MIC; format: cell-based, Bifidobacterium bifidum; details: for MIC: Bifidobacterium bifidum, read-out: MIC against Bbifi-1
Experimental: as §1, §2

[6] = system: colon injury; experiment: Colon histopathology (HE staining) in mice with 5-FU-induced diarrhea; format: in vivo; details: panels 1A and 2A in FIG. 13
Experimental: After the animal experiment, the middle colon of the mice was collected and fixed in 4% paraformaldehyde for 24 h. The fixed colon tissues were sequentially dehydrated, transparentized, waxed, and embedded. The embedded paraffin blocks of colon tissues were sectioned at a thickness of 5 μm, followed by spreading and baking, and the dried sections were subjected to conventional HE staining. The pathological changes were observed under an optical microscope. Pathological scoring was performed according to Table 6 below, and the total pathological scores (the sum of the scores of all indices) were calculated.

[7] = broth dilution, anaerobic, 37° C., 46-48 h

| Compound | MIC [1, 7] [µg/mL] | MIC [2, 7] [µg/mL] | MIC [3] [µg/mL] | MIC [4, 7] [µg/mL] | MIC [5, 7] [µg/mL] | other results |
| --- | --- | --- | --- | --- | --- | --- |
| CN(C)[C@@H]1C(O)=C(C(N)=O)C(=O)[C@@]2(O)C(O)=C3C(=O)c4c(O)cccc4[C@@](C)(O)[C@H]3C[C@@H]12 [Tetracycline] | 8 (≈ 18 µM) | 0.5 (≈ 1.13 µM) | 0.5 (≈ 1.13 µM) | < 0.125 | 0.125 (≈ 0.281 µM) |  |
| C[C@H]1COc2c(N3CCN(C)CC3)c(F)cc3c(=O)c(C(=O)O)cn1c23 [Levofloxacin] | 8 (≈ 22.1 µM) |  |  |  |  |  |
| [H]/N=C(/N)N[C@H]1[C@H](O)[C@@H](O)[C@H](O[C@@H]2O[C@@H](C)[C@](O)(C=O)[C@H]2O[C@@H]2O[C@@H](CO)[C@H](O)[C@@H](O)[C@@H]2NC)[C@@H](N/C(N)=N\[H])[C@@H]1O [Streptomycin] | < 0.125 | 128 (≈ 220 µM) | 128 (≈ 220 µM) | 0.125 (≈ 0.215 µM) | 128 (≈ 220 µM) |  |
| Gentamicin |  |  |  |  |  | MIC against Pdist-1 [1, 7]: <0.125 µg/mL; MIC against Eaviu-1 [2, 7]: 8 µg/mL; MIC against Lsali-1 [3]: 16 µg/mL; MIC against Lferm-1 [4, 7]: 0.125 µg/mL; MIC against Bbifi-1 [5, 7]: 8 µg/mL |
| CN[C@H](CC(C)C)C(=O)N[C@H]1C(=O)N[C@@H](CC(N)=O)C(=O)N[C@H]2C(=O)N[C@H]3C(=O)N[C@H](C(=O)N[C@H](C(=O)O)c4cc(O)cc(O)c4-c4cc3ccc4O)[C@H](O)c3ccc(c(Cl)c3)Oc3cc2cc(c3O[C@@H]2O[C@H](CO)[C@@H](O)[C@H](O)[C@H]2O[C@H]2C[C@](C)(N)[C@H](O)[C@H](C)O2)Oc2ccc(cc2Cl)[C@H]1O [Vancomycin] |  |  |  |  |  | MIC [1]: 8 µg/mL (≈ 5.52 µM); MIC [2]: 2 µg/mL (≈ 1.38 µM); MIC [4]: 0.125 µg/mL (≈ 0.0863 µM); MIC [5]: 1 µg/mL (≈ 0.69 µM) |
| CCC[C@@H]1C[C@@H](C(=O)N[C@@H]([C@H]2O[C@H](SC)[C@H](O)[C@@H](O)[C@H]2O)[C@H](C)Cl)N(C)C1 [Clindamycin] | 16 (≈ 37.6 µM) | 4 (≈ 9.41 µM) | 8 (≈ 18.8 µM) | < 0.125 | 1 (≈ 2.35 µM) |  |
| O=C(N[C@H](CO)[C@H](O)c1ccc([N+](=O)[O-])cc1)C(Cl)Cl [Chloramphenicol] |  | 128 (≈ 396 µM) | 256 (≈ 792 µM) | 0.125 (≈ 0.387 µM) | 8 (≈ 24.8 µM) |  |
| CC[C@H]1OC(=O)[C@H](C)[C@@H](O[C@H]2C[C@@](C)(OC)[C@@H](O)[C@H](C)O2)[C@H](C)[C@@H](O[C@@H]2O[C@H](C)C[C@H](N(C)C)[C@H]2O)[C@](C)(O)C[C@@H](C)C(=O)[C@H](C)[C@@H](O)[C@]1(C)O [Erythromycin] | 32 (≈ 43.6 µM) | 0.25 (≈ 0.341 µM) | 0.125 (≈ 0.17 µM) | < 0.125 | 0.125 (≈ 0.17 µM) |  |
| CC1(C)S[C@@H]2[C@H](NC(=O)[C@H](N)c3ccccc3)C(=O)N2[C@H]1C(=O)O [Ampicillin] | 8 (≈ 22.9 µM) | 4 (≈ 11.4 µM) | 4 (≈ 11.4 µM) | 0.5 (≈ 1.43 µM) | 0.25 (≈ 0.715 µM) |  |
| NC[C@H]1O[C@H](O[C@H]2[C@H](O)[C@@H](O[C@H]3O[C@H](CO)[C@@H](O)[C@H](N)[C@H]3O)[C@H](N)C[C@@H]2N)[C@H](O)[C@@H](O)[C@@H]1O [Kanamycin] |  |  | 256 (≈ 528 µM) |  |  |  |
| CO[C@H]1/C=C/O[C@@]2(C)Oc3c(C)c(O)c4c(O)c(c(/C=N/N5CCN(C)CC5)c(O)c4c3C2=O)NC(=O)/C(C)=C\C=C\[C@H](C)[C@H](O)[C@@H](C)[C@@H](O)[C@@H](C)[C@H](OC(C)=O)[C@@H]1C [Rifampicin] | < 0.125 |  |  |  |  |  |
| Penicillin |  |  |  |  |  | MIC against Pdist-1 [1, 7]: 8 µg/mL |
| CN(C)C(=O)C(CCN1CCC(O)(c2ccc(Cl)cc2)CC1)(c1ccccc1)c1ccccc1 [loperamide] |  |  |  |  |  | colon histopathological observation (HE staining) [6]: the colon structure was relatively intact, mucosal epithelial cells showed no significant necrosis, the number of goblet cells was significantly increased, and only a small amount of lymphocyte infiltration was observed in the lamina propria |
| C[C@@H](O)[C@H]1C(=O)N2C(C(=O)O)=C(SCCN=CN)C[C@H]12 [Imipenem] | 16 (≈ 53.4 µM) |  |  |  |  |  |
| CO/N=C(\C(=O)N[C@@H]1C(=O)N2C(C(=O)O)=C(CSc3nc(=O)c(=O)[nH]n3C)CS[C@H]12)c1csc(N)n1 [Ceftriaxone] | 16 (≈ 28.9 µM) |  |  |  |  |  |

Reference: patent US20250352587A1, “PROBIOTIC AND USE THEREOF” (priority 2023, published 2025)
